Test results from patent publication US8703098B2, “Labelled adrenomedullin derivatives and their use for imaging and therapy” (Institut de Cardiologie de Montreal, priority 2004, dated 2014).
Ends that are not written are not given here.

What was measured:
[1] = dog, in vivo, iv
Procedure: All experimental procedures were performed in accordance with regulations and ethical guidelines from Canadian Council for the Care of Laboratory Animals, and received approval by the animal ethics and research committee of the Montreal Heart Institute. Mongrel dogs weighing between 20-30 kg and presenting negative Dirofilaria imitis blood test results were anesthetized by an initial intravenous dose of pentobarbital sodium (50 mg/kg). Animals were intubated and mechanically ventilated using room air. Cutaneous electrocardiographic leads were installed, and 18F cathlon with three-way was installed on both saphenous vein for 0.9% sodium chloride perfusion, radiolabelled injection and blood collection. A right arterial femoral catheter was also inserted using the Seldinger technique for continuous blood pressure monitoring.
Purified and buffered ^99mTc-DTPA-hAM1-52 samples were injected in right saphenous vein (n=6). A series of 2 mL blood samples were collected 1 min after the initial AM injection for a 10-min period, then repeated every 5 min for the following 50-min period. […]
Plasma kinetics of ^99mTc-DTPA-hAM1-52 was fitted using a two-phase exponential decay equation with GraphPad Prism version 4.0 software. Time effects on each organ biodistribution were analyzed by two-way repeated measures ANOVA followed, when a significant interaction was found, by Bonferroni/Dunn t-test. […]

[2] = Biodistribution and pulmonary retention of 125I-rAM(1-50) in rats after intravenous or intra-arterial injection; format: in vivo, rat; conditions: drug given 5 min before tracer
Procedure: (§1) All experimental procedures were performed in accordance with the regulations and ethical guidelines from Canadian Council for the Care of Laboratory Animals, and received approval by the Animal Ethics and Research Committee of the Montreal Heart Institute. Male Sprague-Dawley rats (Charles River), weighing between 400-450 g, were anaesthetized by an initial intramuscular dose of xylazine (10 mg/kg of body weight) and ketamine (50 mg/kg of body weight), followed by an intra-peritoneal injection of heparin (2000 units; Sigma). Catheters were inserted into the right carotid artery and jugular vein. Heart rate and systemic blood pressure were monitored continuously. […] Venous and arterial blood samples (3 ml) were collected and centrifuged (1875 g, 15 min, 4° C.) and the plasma saved for subsequent measurement of irAM (immunoreactive AM). A similar amount of saline was infused into the animals to prevent hypovolaemia.
The animals were then killed and the lungs, liver, kidneys (en bloc with the adrenal glands) and heart were removed and gravity drained. […] Results are expressed as a percentage of total radioactivity injected.
The drugs were given by either intraarterial (n=10 in each group) or intravenous (n=10 in each group) injection 5 min before the ^125I-rAM(1-50) bolus. Plasma samples and tissues were treated as described above.
(§2) Multiple group comparisons were performed by factorial ANOVA, followed, when a significant interaction was found, by the Bonferroni/Dunn t test. Plasma kinetics of 125I-rAM(1-50) was fitted using a two-phase exponential decay equation with GraphPad Prism (version 4.0) software. […] Comparison between venous and arterial rAM(1-50) levels in plasma was performed with a two-tailed paired Student's t test. In the canine experiments, the effect of drugs on AM extraction was analyzed by two-tailed paired Student's t tests. A P value of <0.05 was considered significant. All results are reported as means ±S.E.M.

[3] = In vivo single-pass pulmonary clearance of 125I-rAM(1-50) in dogs, single bolus indicator-dilution technique; parameters: species or system dog; conditions: for mean single-pass pulmonary extraction of 125I-rAM(1-50) after administration of the drug: dogs, drug as intravenous bolus of 100 nmol 5 min before second experiment, mean ±S.E.M.
Procedure: Dogs were anaesthetized and prepared as described in detail in reference, which is hereby incorporated by reference. A catheter was inserted into the carotid artery and positioned just above the aortic valve. This catheter was connected to a peristaltic pump for automated blood withdrawal. Another catheter was placed into the jugular vein and positioned in the right ventricular outflow tract to allow bolus injection of the study tracers. A bolus was prepared by adding 3.3 μCi of 125I-rAM(1-50) (2.9 pmol) to 3 ml of Evans-Blue-dye labelled albumin and 0.9% saline to give a final volume of 6 ml. The mixture was separated into three equal parts for the two successive experiments in each animal and to realize dilution-curve standards. A baseline single-bolus indicator-dilution experiment was performed.
The collected samples were processed and indicator-dilution curves constructed and analyzed as described in previously cited reference 13. Cardiac output and mean tracer AM extraction during the pulmonary transit time were computed from the curves. Mean tracer extraction corresponded to the difference between the areas of the outflow curve of the vascular reference (albumin) and that of the extracted tracer (AM). Recirculation of the tracers apparent in the terminal portion of the curves was removed by linear extrapolation of the semi-logarithmic down slopes.
as §2

[4] = Plasma kinetics of 125I-rAM(1-50) after single intravenous injection in rats; format: in vivo, rat; conditions: drug given 5 min before the 125I-rAM(1-50) bolus
Procedure: as §1
The animals were then killed and the lungs, liver, kidneys (en bloc with the adrenal glands) and heart were removed and gravity drained. […] Results are expressed as a percentage of total radioactivity injected. […]
Multiple group comparisons were performed by factorial ANOVA, followed, when a significant interaction was found, by the Bonferroni/Dunn t test. […] In the canine experiments, the effect of drugs on AM extraction was analyzed by two-tailed paired Student's t tests. […]

## CC[C@H](C)[C@H](NC(=O)[C@H](CCC(N)=O)NC(=O)[C@H](Cc1c[nH]cn1)NC(=O)[C@H](C)NC(=O)[C@H](CC(C)C)NC(=O)[C@H](CCCCN)NC(=O)[C@H](CCC(N)=O)NC(=O)[C@@H](NC(=O)[C@@H](NC(=O)[C@@H]1CSSC[C@H](NC(=O)CNC(=O)[C@H](Cc2ccccc2)NC(=O)[C@H](CO)NC(=O)[C@H](CCCNC(=N)N)NC(=O)[C@H](CC(C)C)NC(=O)CNC(=O)[C@H](CCC(N)=O)NC(=O)[C@H](Cc2ccccc2)NC(=O)[C@H](CC(N)=O)NC(=O)[C@H](CC(N)=O)NC(=O)[C@H](CCSC)NC(=O)[C@H](CO)NC(=O)[C@H](CCC(N)=O)NC(=O)[C@H](CCCNC(=N)N)NC(=O)[C@H](Cc2ccc(O)cc2)NC(=O)CN(CCN(CCN(CC(=O)O)CC(=O)O)CC(=O)O)CC(=O)O)C(=O)N[C@@H](CCCNC(=N)N)C(=O)N[C@@H](Cc2ccccc2)C(=O)NCC(=O)N[C@@H]([C@@H](C)O)C(=O)N1)[C@@H](C)O)C(C)C)C(=O)N[C@@H](Cc1ccc(O)cc1)C(=O)N[C@@H](CCC(N)=O)C(=O)N[C@@H](Cc1ccccc1)C(=O)N[C@H](C(=O)N[C@@H](CC(=O)O)C(=O)N[C@@H](CCCCN)C(=O)N[C@@H](CC(=O)O)C(=O)N[C@@H](CCCCN)C(=O)N[C@@H](CC(=O)O)C(=O)N[C@@H](CC(N)=O)C(=O)N[C@H](C(=O)N[C@@H](C)C(=O)N1CCC[C@H]1C(=O)N[C@@H](CCCNC(=N)N)C(=O)N[C@@H](CO)C(=O)N[C@@H](CCCCN)C(=O)N[C@H](C(=O)N[C@@H](CO)C(=O)N1CCC[C@H]1C(=O)N[C@@H](CCC(N)=O)C(=O)NCC(=O)N[C@@H](Cc1ccc(O)cc1)C(N)=O)[C@@H](C)CC)C(C)C)[C@@H](C)O [99mTc-DTPA-hAM1-52, metal not drawn]
[1]
  ratio of rate constant for exchange between the central and peripheral compartments (k1-2/k2-1): 24.09

## hAM(22-52): C-terminal AM fragment that blocks the specific AM receptor (Bachem)
[2]
  effect of prior administration on 125I-rAM(1-50) activity retained in kidneys: elevated the retained activity
  effect of prior administration on biodistribution of 125I-rAM(1-50): did not significantly modify this distribution
  effect of prior administration on pulmonary first-pass retention of 125I-rAM(1-50) (intra-arterial compared with intravenous): not affected
[3]
  mean single-pass pulmonary extraction of 125I-rAM(1-50) after administration of the drug: 31.4±3.3%
[4]
  effect of administration prior to radiolabelled rAM(1-50) on its plasma kinetics: did not modify plasma kinetics

## rAM(1-50): unlabelled rat adrenomedullin, amino acids 1-50 (American Peptide) (YRQSMNQGSRSTGCRFGTCTMQKLAHQIYQFTDKDKDGMAPRNKISPQGY; ends and bridges not checked; cysteine pairing not given here)
[2]
  effect of prior administration on 125I-rAM(1-50) lung activity: important reduction in lung activity
  effect of prior administration on amount of 125I-rAM(1-50) retained by the liver, kidneys and heart: significantly increased
  effect of prior administration on pulmonary first-pass retention of 125I-rAM(1-50) (intra-arterial compared with intravenous): did not decrease further the already lowered pulmonary retention after intra-arterial compared with intravenous injections
[3]
  mean single-pass pulmonary extraction of 125I-rAM(1-50) after administration of the drug: 21.9±2.4%
[3]; same dog, second experiment (FIG. 4B)
  mean extraction of 125I-rAM(1-50) after injection of the drug, typical experiment: 12%
[4]
  effect of administration prior to radiolabelled rAM(1-50) on its plasma kinetics: did not modify plasma kinetics
